Reference: the supplement of paper PMC10307832

How the values were obtained:
Assay in all cases: relative viability (nuclei count vs DMSO), 5 days (fraction); higher = more cells survive
AT-7519 + Foretinib = compound: O=C(NC1CCNCC1)c1n[nH]cc1NC(=O)c1c(Cl)cccc1Cl [AT-7519] + COc1cc2c(Oc3ccc(NC(=O)C4(C(=O)Nc5ccc(F)cc5)CC4)cc3F)ccnc2cc1OCCCN1CCOCC1 [Foretinib] (partner 0.25 µM)
In short: (§1)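 Relative viability was taken as the ratio of nuclei in treated wells to nuclei in vehicle wells. Lung cancer cell lines in 1536-well plates received compounds by pin tool one day after seeding, either one drug alone or a fixed anchor-drug dose plus five library-drug doses (not always all listed) in √10 steps. Nuclei were counted on 4× images after 5 days of treatment, and values are medians of duplicate plates.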

[1] = compound: C1=CC2=C(C=C(C(=C2N=C1)O)N=NC3=CC4=C(C=C3)C=C(C=C4)S(=O)(=O)O)S(=O)(=O)O + Cc1nc(Nc2ncc(C(=O)Nc3c(C)cccc3Cl)s2)cc(N2CCN(CCO)CC2)n1 [Dasatinib] (partner 0.075 µM)
In short: as §1

[2] = compound: C1=CC2=C(C=C(C(=C2N=C1)O)N=NC3=CC4=C(C=C3)C=C(C=C4)S(=O)(=O)O)S(=O)(=O)O + Cc1nc(NC(=O)N2CCC[C@H]2C(N)=O)sc1-c1ccnc(C(C)(C)C(F)(F)F)c1 [Alpelisib] (partner 2 µM)
In short: as §1

AT-7519 + Crizotinib = compound: O=C(NC1CCNCC1)c1n[nH]cc1NC(=O)c1c(Cl)cccc1Cl [AT-7519] + C[C@@H](Oc1cc(-c2cnn(C3CCNCC3)c2)cnc1N)c1c(Cl)ccc(F)c1Cl [Crizotinib] (partner 1 µM)
In short: as §1

Cell Line | relative viability (AT-7519 + Foretinib; first compound 0.01 µM) | relative viability (AT-7519 + Foretinib; first compound 0.03162 µM) | relative viability (AT-7519 + Foretinib; first compound 0.3162 µM) | relative viability (AT-7519 + Foretinib; first compound 1 µM) | relative viability ([1]; first compound 0.08 µM) | relative viability ([1]; first compound 0.253 µM) | relative viability ([1]; first compound 0.8 µM) | relative viability ([1]; first compound 2.53 µM) | relative viability ([1]; first compound 8 µM) | relative viability ([2]; first compound 0.08 µM) | relative viability ([2]; first compound 0.253 µM) | relative viability ([2]; first compound 0.8 µM) | relative viability ([2]; first compound 2.53 µM) | relative viability ([2]; first compound 8 µM) | relative viability (AT-7519 + Crizotinib; first compound 0.01 µM) | relative viability (AT-7519 + Crizotinib; first compound 0.03162 µM) | relative viability (AT-7519 + Crizotinib; first compound 0.3162 µM) | relative viability (AT-7519 + Crizotinib; first compound 1 µM)
SK-LU-1 | 0.803 | 0.794 | 0.88 | 0.433 | 0.2 | 0.177 | 0.212 | 0.167 | 0.172 | 1.06 | 0.968 | 0.98 | 1.1 | 1.18 | 1.12 | 0.799 | 0.713 | 0.48
SK-MES-1 | 0.907 | 1.09 | 0.735 | 0.919 | 0.43 | 0.35 | 0.353 | 0.531 | 0.477 | 0.987 | 0.845 | 0.824 | 0.944 | 0.847 | 1.05 | 0.903 | 0.854 | 0.787
SW 1573 | 0.797 | 0.918 | 0.722 | 0.543 | 0.545 | 0.572 | 0.417 | 0.513 | 0.273 | 0.92 | 0.727 | 0.775 | 0.761 | 0.797 | 0.817 | 0.755 | 0.84 | 0.368
